The source of these data is ChEMBL document CHEMBL1123701, “Synthesis and quantitative structure-activity relationship analysis of N-triiodoallyl- and N-iodopropargylazoles. New antifungal agents” (1987).

In brackets after ≈: the same amount, converted by molar mass.

One test has as its system Aspergillus fumigatus. The test can be described thus: Antifungal activity against Aspergillus fumigatus Saito strain. Format: functional.
In test [1] the test system is Trichophyton interdigitale. The test can be described thus: Antifungal activity towards Trichophyton interdigitale. Format: functional.
The subject of a further test is Candida albicans. The test can be described thus: Antifungal activity against Candida albicans C-A-24 strain. It counts as functional.
A further test has as its system Cryptococcus neoformans. The test can be described thus: Antifungal activity against Cryptococcus neoformans Cr-1 strain. Format: functional.
The test system of another test is Trichophyton benhamiae. The test can be described thus: Antifungal activity towards Trichophyton mentagrophytes 530324 strain. Format: functional, Arthroderma benhamiae.

One may read the MIC as the lowest concentration found to suppress growth. Regarding `Oc1ccc(-c2nnn(CC#CI)n2)cc1`, the MIC in the test with Aspergillus fumigatus came to 0.39 µg/mL (≈ 1.2 µM); in test [1] it was 0.1 µg/mL (≈ 0.307 µM); against Candida albicans, 6.25 µg/mL (≈ 19.2 µM); in the test with Cryptococcus neoformans, 12.5 µg/mL (≈ 38.3 µM); with Trichophyton benhamiae it was 0.2 µg/mL (≈ 0.613 µM).
Regarding `O=[N+]([O-])c1c(Cl)c(Cl)n(CC(I)=C(I)I)c1Cc1cc(Cl)cc(Cl)c1O`, the MIC was over 25 µg/mL in the test on Aspergillus fumigatus; 25 µg/mL (≈ 32.3 µM) in test [1]; over 25 µg/mL against Candida albicans; over 25 µg/mL against Cryptococcus neoformans; 25 µg/mL (≈ 32.3 µM) with Trichophyton benhamiae.
As for `IC#CCn1cnnn1`, the minimal inhibitory concentration (MIC) in the test on Aspergillus fumigatus came to 1.56 µg/mL (≈ 6.67 µM); in test [1] it was 1.56 µg/mL (≈ 6.67 µM); with Candida albicans, 3.13 µg/mL (≈ 13.4 µM); in the test with Cryptococcus neoformans it was 0.78 µg/mL (≈ 3.33 µM); against Trichophyton benhamiae, 1.56 µg/mL (≈ 6.67 µM).
Regarding `O=[N+]([O-])c1ccc(-c2nnn(CC(I)=C(I)I)n2)cc1`, the MIC (in the test on Aspergillus fumigatus; in test [1]; in the test with Candida albicans; against Cryptococcus neoformans; in the test on Trichophyton benhamiae) was over 100 µg/mL in each case.
In the case of `O=[N+]([O-])c1c(Cl)cccc1-c1cn(CC#CI)cc1Cl`, the MIC was determined as 12.5 µg/mL (≈ 29.7 µM) in the test with Aspergillus fumigatus; 6.25 µg/mL (≈ 14.8 µM) in test [1]; 25 µg/mL (≈ 59.4 µM) with Candida albicans; 25 µg/mL (≈ 59.4 µM) in the test on Cryptococcus neoformans; 6.25 µg/mL (≈ 14.8 µM) in the test on Trichophyton benhamiae.
Turning to `IC(I)=C(I)Cn1nnc(C2CC2)n1`, the MIC in the test on Aspergillus fumigatus was found to be 0.39 µg/mL (≈ 0.739 µM); in test [1] it was 0.2 µg/mL (≈ 0.379 µM); with Candida albicans it was 3.13 µg/mL (≈ 5.93 µM); in the test with Cryptococcus neoformans, 3.13 µg/mL (≈ 5.93 µM); against Trichophyton benhamiae it was 0.2 µg/mL (≈ 0.379 µM).
For `O=[N+]([O-])c1cn(CC(I)=C(I)I)cn1`, the MIC turned out to be 0.39 µg/mL (≈ 0.735 µM) with Aspergillus fumigatus; 0.39 µg/mL (≈ 0.735 µM) in test [1]; 3.13 µg/mL (≈ 5.9 µM) against Candida albicans; 6.25 µg/mL (≈ 11.8 µM) in the test with Cryptococcus neoformans; 0.78 µg/mL (≈ 1.47 µM) in the test on Trichophyton benhamiae.
`O=[N+]([O-])c1ncnn1CC(I)=C(I)I`: the minimal inhibitory concentration (MIC) in the test with Aspergillus fumigatus stood at 0.39 µg/mL (≈ 0.733 µM); in test [1] it was 0.2 µg/mL (≈ 0.376 µM); against Candida albicans, 12.5 µg/mL (≈ 23.5 µM); against Cryptococcus neoformans, 0.78 µg/mL (≈ 1.47 µM); against Trichophyton benhamiae, 0.39 µg/mL (≈ 0.733 µM).
With `IC#CCn1nnc(C2CC2)n1`, the minimum inhibitory concentration (MIC) in the test with Aspergillus fumigatus is 0.39 µg/mL (≈ 1.42 µM); in test [1] it was 0.78 µg/mL (≈ 2.85 µM); in the test with Candida albicans, 1.56 µg/mL (≈ 5.69 µM); with Cryptococcus neoformans, 1.56 µg/mL (≈ 5.69 µM); in the test with Trichophyton benhamiae it was 0.39 µg/mL (≈ 1.42 µM).
As for `O=[N+]([O-])c1cn(CC#CI)cn1`, the MIC in the test on Aspergillus fumigatus stood at 0.78 µg/mL (≈ 2.82 µM); in test [1] it was 0.78 µg/mL (≈ 2.82 µM); against Candida albicans it was 6.25 µg/mL (≈ 22.6 µM); in the test on Cryptococcus neoformans, 0.1 µg/mL (≈ 0.361 µM); in the test on Trichophyton benhamiae, 0.2 µg/mL (≈ 0.722 µM).
Take `O=[N+]([O-])c1c(Cl)c(Cl)n(CC#CI)c1Cc1cc(Cl)cc(Cl)c1O`: the MIC in the test on Aspergillus fumigatus stood at 12.5 µg/mL (≈ 24 µM); in test [1], 3.13 µg/mL (≈ 6.02 µM); in the test on Candida albicans, 25 µg/mL (≈ 48.1 µM); in the test on Cryptococcus neoformans, 3.13 µg/mL (≈ 6.02 µM); against Trichophyton benhamiae it was 3.13 µg/mL (≈ 6.02 µM).
As to `Clc1ccccc1C(c1ccccc1)(c1ccccc1)n1ccnc1` [CLOTRIMAZOLE], the minimal inhibitory concentration (MIC) against Aspergillus fumigatus came to 1.56 µg/mL (≈ 4.52 µM); in test [1], 0.39 µg/mL (≈ 1.13 µM); in the test with Candida albicans it was 6.25 µg/mL (≈ 18.1 µM); against Cryptococcus neoformans, 1.56 µg/mL (≈ 4.52 µM); in the test on Trichophyton benhamiae it was 0.39 µg/mL (≈ 1.13 µM).
Turning to `IC#CCn1cncn1`, the MIC stood at 0.39 µg/mL (≈ 1.67 µM) with Aspergillus fumigatus; 0.78 µg/mL (≈ 3.35 µM) in test [1]; 3.13 µg/mL (≈ 13.4 µM) against Candida albicans; 0.78 µg/mL (≈ 3.35 µM) with Cryptococcus neoformans; 0.78 µg/mL (≈ 3.35 µM) in the test on Trichophyton benhamiae.
With `FC(F)(F)c1cccc(-c2nnn(CC#CI)n2)c1`, the MIC came to 3.13 µg/mL (≈ 8.28 µM) in the test with Aspergillus fumigatus; 0.1 µg/mL (≈ 0.264 µM) in test [1]; 3.13 µg/mL (≈ 8.28 µM) against Candida albicans; 1.56 µg/mL (≈ 4.13 µM) in the test on Cryptococcus neoformans; 0.1 µg/mL (≈ 0.264 µM) in the test with Trichophyton benhamiae.
In the case of `Cc1ccnn1CC#CI`, the minimum inhibitory concentration (MIC) was found to be 0.78 µg/mL (≈ 3.17 µM) with Aspergillus fumigatus; 0.78 µg/mL (≈ 3.17 µM) in test [1]; 6.25 µg/mL (≈ 25.4 µM) in the test with Candida albicans; 1.56 µg/mL (≈ 6.34 µM) against Cryptococcus neoformans; 0.39 µg/mL (≈ 1.59 µM) in the test on Trichophyton benhamiae.
For the compound `IC(I)=C(I)Cn1nnnc1Cc1ccccc1`, the MIC is 25 µg/mL (≈ 43.3 µM) in the test with Aspergillus fumigatus; 0.1 µg/mL (≈ 0.173 µM) in test [1]; over 25 µg/mL with Candida albicans; over 25 µg/mL with Cryptococcus neoformans; 0.1 µg/mL (≈ 0.173 µM) with Trichophyton benhamiae.
For the compound `Cc1nnn(CC#CI)n1`, the MIC in the test on Aspergillus fumigatus was 0.78 µg/mL (≈ 3.14 µM); in test [1], 0.78 µg/mL (≈ 3.14 µM); against Candida albicans it was 1.56 µg/mL (≈ 6.29 µM); against Cryptococcus neoformans it was 0.78 µg/mL (≈ 3.14 µM); against Trichophyton benhamiae it was 0.78 µg/mL (≈ 3.14 µM).
With `CCOCCc1nnn(CC(I)=C(I)I)n1`, the MIC against Aspergillus fumigatus worked out at 0.78 µg/mL (≈ 1.39 µM); in test [1], 0.39 µg/mL (≈ 0.697 µM); against Candida albicans, 3.13 µg/mL (≈ 5.59 µM); against Cryptococcus neoformans, 1.56 µg/mL (≈ 2.79 µM); with Trichophyton benhamiae, 0.2 µg/mL (≈ 0.357 µM).
Regarding `COc1ccc(Cl)cc1C(=O)c1cccn1CC(I)=C(I)I`, the MIC with Aspergillus fumigatus is 25 µg/mL (≈ 38.3 µM); in test [1] it was 12.5 µg/mL (≈ 19.1 µM); in the test on Candida albicans it was 25 µg/mL (≈ 38.3 µM); with Cryptococcus neoformans, 25 µg/mL (≈ 38.3 µM); in the test with Trichophyton benhamiae it was 12.5 µg/mL (≈ 19.1 µM).
In the case of `CN(C)c1ccc(-c2nnn(CC#CI)n2)cc1`, the minimal inhibitory concentration (MIC) worked out at 50 µg/mL (≈ 142 µM) with Aspergillus fumigatus; 0.78 µg/mL (≈ 2.21 µM) in test [1]; 50 µg/mL (≈ 142 µM) in the test with Candida albicans; 50 µg/mL (≈ 142 µM) with Cryptococcus neoformans; 0.78 µg/mL (≈ 2.21 µM) against Trichophyton benhamiae.
With `CCCc1nnnn1CC#CI`, the minimal inhibitory concentration (MIC) in the test on Aspergillus fumigatus is 3.13 µg/mL (≈ 11.3 µM); in test [1] it was 1.56 µg/mL (≈ 5.65 µM); in the test with Candida albicans, 6.25 µg/mL (≈ 22.6 µM); with Cryptococcus neoformans, 3.13 µg/mL (≈ 11.3 µM); against Trichophyton benhamiae, 0.78 µg/mL (≈ 2.83 µM).
On to `IC#CCn1ncnn1`, for which the minimal inhibitory concentration (MIC) in the test on Aspergillus fumigatus was 0.39 µg/mL (≈ 1.67 µM); in test [1] it was 0.78 µg/mL (≈ 3.33 µM); in the test on Candida albicans, 1.56 µg/mL (≈ 6.67 µM); against Cryptococcus neoformans, 0.39 µg/mL (≈ 1.67 µM); in the test on Trichophyton benhamiae, 0.78 µg/mL (≈ 3.33 µM).
As to `CCCc1nnn(CC(I)=C(I)I)n1`, the MIC (in test [1]; in the test with Trichophyton benhamiae) was 0.1 µg/mL (≈ 0.189 µM) each time.
As for `O=[N+]([O-])c1cn(CC(I)=C(I)I)c(Cl)c1Cl`, the MIC in the test with Aspergillus fumigatus is 0.2 µg/mL (≈ 0.334 µM); in the test on Candida albicans, 0.39 µg/mL (≈ 0.651 µM); against Cryptococcus neoformans, 0.2 µg/mL (≈ 0.334 µM); with Trichophyton benhamiae it was 0.2 µg/mL (≈ 0.334 µM).
Turning to `Clc1ccccc1-c1nnn(CC#CI)n1`, the MIC turned out to be 0.78 µg/mL (≈ 2.26 µM) against Aspergillus fumigatus; 0.1 µg/mL (≈ 0.29 µM) in test [1]; 1.56 µg/mL (≈ 4.53 µM) in the test with Candida albicans; 1.56 µg/mL (≈ 4.53 µM) in the test on Cryptococcus neoformans; 0.1 µg/mL (≈ 0.29 µM) in the test on Trichophyton benhamiae.
For `O=[N+]([O-])c1ccn(CC#CI)c1`, the MIC worked out at 0.1 µg/mL (≈ 0.362 µM) with Aspergillus fumigatus; 0.78 µg/mL (≈ 2.83 µM) in test [1]; 0.78 µg/mL (≈ 2.83 µM) against Candida albicans; 0.1 µg/mL (≈ 0.362 µM) with Cryptococcus neoformans; 0.2 µg/mL (≈ 0.725 µM) against Trichophyton benhamiae.
